According to EP0804408B1, “NOVEL 4-SUBSTITUTED 2,6-DI-TERT-BUTYLPHENOL COMPOUNDS, PHARMACEUTICAL COMPOSITIONS CONTAINING SAME AND PREPARATION METHOD THEREFOR” (priority 1994, dated 1996):

Tested on: macrophages de lignée RAW264.7
Test: Toxicity test on RAW264.7 macrophages (crystal violet and neutral red staining)
Type: cell-based, murins
Details: for DO/ml moyenne sur 4 puis ± écart type / Pourcentage de survie par rapport au témoin cellules en milieu seul: 24 h; for hautement toxique jusqu'à: final conclusion
Experimental: La toxicité de AVF1 pour les macrophages de lignée RAW264.7 (ATCC TIB 71) utilisés pour le test iNOS a été déterminée dans l'expérience préliminaire suivante :
Les macrophages de lignée RAW264.7 ont été distribués dans des séries de 4 puits dans une plaque à 96 puits à raison de 1,5 x 10^5/100 µl/ml dans du milieu de culture (D-NEM sans rouge de phénol, Gibco) additionné de 0,2 % d'antibiotique, 1% de L-glutamine et 5% de sérum de veau foetal décomplémenté (produits pour celuture cellulaire Eurobio).
Après 18 heures, différentes concentrations de raison […] de AVF1 ont été ajoutées sous 100 µl de façon à obtenir les concentrations finales de 10^0 à 10^-10%. Après 24 heures de culture supplémentaire, les cellules ont été observées au microscope et colorées selon deux techniques différentes permettant d'obtenir un pourcentage respectivement de cellules adhérentes au plastique (coloration au violet cristal) et de cellules vivantes (coloration au rouge neutre) : • Dans la première technique, les cellules sont lavées avec du PBS + Ca^2+ + Mg^2+ (Gibco) afin d'éliminer les éventuelles cellules mortes flottantes et de maintenir les cellules vivantes sur le plastique. Le colorant (1% de violet cristal, R.A.L. 20% de méthanol, Merck) est ajouté sous 50 µl/puits et laissé 20 minutes à température ambiante. Après plusieurs lavages doux en PBS + Ca^2+ + Mg^2+ , les plaques sont séchées à 37°C et 100 µl de SDS (Sigma, 1% en eau distillée) sont ajoutés par puits. La plaque est laissée 1 heure à température ambiante à l'abri de la lumière pour permettre la dissolution complète du lysat cellulaire. La plaque est ensuite lue au lecteur ELISA (Labsystems) à 550 nm après 15 secondes d'agitation. Le blanc de densité optique (OD) est fait sur une rangée de 8 cupules n'ayant reçu que 50 µl de la solution de violet cristal puis ayant été traitées comme les autres. • Dans la seconde technique, les cellules reçoivent 50 µl de rouge neutre à 0,3% (R.A.L.) qui est pinocyté par les macrophages vivants. Après 2 heures d'incubation, le milieu est enlevé et les cellules sont lavées doucement avec 200 µl de PBS + Ca^2+ + Mg^2+. Les cellules restantes sont ensuite lysées avec 100 µl de SDS et la plaque est mise à 4°C pendant 1 heure pour permettre un relargage complet du colorant. La plaque est ensuite lue au lecteur ELISA à 570 nm avec un filtre de référence de 630 nm après 15 secondes d'agitation. Le blanc de DO est fait sur une colonne de 8 cupules n'ayant reçu que le colorant puis ayant été traitées comme les autres.
Pour la réalisation de cet essai, AVF1 a été préparé de la façon suivante : 1 g a été dissout dans 5 ml de D-MEM sans rouge de phénol. Cette solution à 20% a été stérilisée sur 0,22 µm (Minisart, Sartorius), le pH contrôlé (7,5), aliquotée sous 1 ml et conservée à +4°C. Au moment de l'emploi, cette solution a été diluée afin d'obtenir les concentrations finales désirées.

[1] = ROUGE NEUTRE, second experiment, AVF1 1 10^-7 %
[2] = ROUGE NEUTRE, second experiment, AVF1 1 10^-8 %
[3] = ROUGE NEUTRE, second experiment, AVF1 1 10^-9 %
[4] = ROUGE NEUTRE, second experiment, AVF1 1 10^-10 %
[5] = ROUGE NEUTRE, second experiment, AVF1 5 10^-7 %
[6] = ROUGE NEUTRE, second experiment, AVF1 5 10^-8 %
[7] = ROUGE NEUTRE, second experiment, AVF1 5 10^-9 %
[8] = ROUGE NEUTRE, second experiment, AVF1 5 10^-10 %
[9] = ROUGE NEUTRE, second experiment, AVF1 10^-6 %
[10] = VIOLET CRISTAL, second experiment, AVF1 1 10^-7 %
[11] = VIOLET CRISTAL, second experiment, AVF1 1 10^-8 %
[12] = VIOLET CRISTAL, second experiment, AVF1 1 10^-9 %
[13] = VIOLET CRISTAL, second experiment, AVF1 1 10^-10 %
[14] = VIOLET CRISTAL, second experiment, AVF1 5 10^-7 %
[15] = VIOLET CRISTAL, second experiment, AVF1 5 10^-8 %
[16] = VIOLET CRISTAL, second experiment, AVF1 5 10^-9 %
[17] = VIOLET CRISTAL, second experiment, AVF1 5 10^-10 %
[18] = VIOLET CRISTAL, second experiment, AVF1 10^-6 %

CC(C)(C)c1cc(C(=O)OCCOCCOCCOCCOCCOCCOCCOCCO)cc(C(C)(C)C)c1O [AVF1, 3,5-di-t-butyl-4-hydroxybenzoate d'octaoxyéthylèneglycol]
n'est plus toxique à partir de (RAW 264.7 macrophages after 24 heures de culture, non-toxic from this concentration downwards): ≤ 10^-6%
DO/ml moyenne sur 4 puis ± écart type (ROUGE NEUTRE, AVF1 0,5 %): 0 DO/ml
Pourcentage de survie par rapport au témoin cellules en milieu seul (ROUGE NEUTRE, AVF1 0,5 %): 0%
DO/ml moyenne sur 4 puis ± écart type (ROUGE NEUTRE, AVF1 1 10^-2 %): 0 DO/ml
Pourcentage de survie par rapport au témoin cellules en milieu seul (ROUGE NEUTRE, AVF1 1 10^-2 %): 6%
DO/ml moyenne sur 4 puis ± écart type (ROUGE NEUTRE, AVF1 1 10^-3 %): 0 DO/ml
Pourcentage de survie par rapport au témoin cellules en milieu seul (ROUGE NEUTRE, AVF1 1 10^-3 %): 0%
DO/ml moyenne sur 4 puis ± écart type (ROUGE NEUTRE, AVF1 1 10^-4 %): 0,010 ± 0,002 DO/ml
Pourcentage de survie par rapport au témoin cellules en milieu seul (ROUGE NEUTRE, AVF1 1 10^-4 %): 1%
DO/ml moyenne sur 4 puis ± écart type (ROUGE NEUTRE, AVF1 1 10^-5 %): 0,060 ± 0,034 DO/ml
Pourcentage de survie par rapport au témoin cellules en milieu seul (ROUGE NEUTRE, AVF1 1 10^-5 %): 41%
DO/ml moyenne sur 4 puis ± écart type (ROUGE NEUTRE, AVF1 1 %): 0 DO/ml
Pourcentage de survie par rapport au témoin cellules en milieu seul (ROUGE NEUTRE, AVF1 1 %): 0%
DO/ml moyenne sur 4 puis ± écart type (ROUGE NEUTRE, AVF1 5 10^-3 %): 0 DO/ml
Pourcentage de survie par rapport au témoin cellules en milieu seul (ROUGE NEUTRE, AVF1 5 10^-3 %): 3%
DO/ml moyenne sur 4 puis ± écart type (ROUGE NEUTRE, AVF1 5 10^-4 %): 0 DO/ml
Pourcentage de survie par rapport au témoin cellules en milieu seul (ROUGE NEUTRE, AVF1 5 10^-4 %): 0%
DO/ml moyenne sur 4 puis ± écart type (ROUGE NEUTRE, AVF1 5 10^-5 %): 0,023 ± 0,003 DO/ml
Pourcentage de survie par rapport au témoin cellules en milieu seul (ROUGE NEUTRE, AVF1 5 10^-5 %): 16%
DO/ml moyenne sur 4 puis ± écart type (ROUGE NEUTRE, AVF1 5 10^-6 %): 0,476 ± 0,034 DO/ml
Pourcentage de survie par rapport au témoin cellules en milieu seul (ROUGE NEUTRE, AVF1 5 10^-6 %): 70%
DO/ml moyenne sur 4 puis ± écart type [1]: 0,605 ± 0,024 DO/ml
Pourcentage de survie par rapport au témoin cellules en milieu seul [1]: 95%
DO/ml moyenne sur 4 puis ± écart type [2]: 0,601 ± 0,121 DO/ml
Pourcentage de survie par rapport au témoin cellules en milieu seul [2]: 95%
DO/ml moyenne sur 4 puis ± écart type [3]: 0,594 ± 0,083 DO/ml
Pourcentage de survie par rapport au témoin cellules en milieu seul [3]: 93%
DO/ml moyenne sur 4 puis ± écart type [4]: 0,609 ± 0,053 DO/ml
Pourcentage de survie par rapport au témoin cellules en milieu seul [4]: 96%
DO/ml moyenne sur 4 puis ± écart type [5]: 0,652 ± 0,089 DO/ml
Pourcentage de survie par rapport au témoin cellules en milieu seul [5]: 100%
DO/ml moyenne sur 4 puis ± écart type [6]: 0,575 ± 0,040 DO/ml
Pourcentage de survie par rapport au témoin cellules en milieu seul [6]: 90%
DO/ml moyenne sur 4 puis ± écart type [7]: 0,545 ± 0,015 DO/ml
Pourcentage de survie par rapport au témoin cellules en milieu seul [7]: 86%
DO/ml moyenne sur 4 puis ± écart type [8]: 0,573 ± 0,030 DO/ml
Pourcentage de survie par rapport au témoin cellules en milieu seul [8]: 90%
DO/ml moyenne sur 4 puis ± écart type [9]: 0,602 ± 0,059 DO/ml
Pourcentage de survie par rapport au témoin cellules en milieu seul [9]: 95%
DO/ml moyenne sur 4 puis ± écart type (VIOLET CRISTAL, AVF1 0,5 %): 0,118 ± 0,027 DO/ml
Pourcentage de survie par rapport au témoin cellules en milieu seul (VIOLET CRISTAL, AVF1 0,5 %): 6%
DO/ml moyenne sur 4 puis ± écart type (VIOLET CRISTAL, AVF1 1 10^-2 %): 0,118 ± 0,027 DO/ml
Pourcentage de survie par rapport au témoin cellules en milieu seul (VIOLET CRISTAL, AVF1 1 10^-2 %): 6%
DO/ml moyenne sur 4 puis ± écart type (VIOLET CRISTAL, AVF1 1 10^-3 %): 0,117 ± 0,027 DO/ml
Pourcentage de survie par rapport au témoin cellules en milieu seul (VIOLET CRISTAL, AVF1 1 10^-3 %): 8%
DO/ml moyenne sur 4 puis ± écart type (VIOLET CRISTAL, AVF1 1 10^-4 %): 0,180 ± 0,016 DO/ml
Pourcentage de survie par rapport au témoin cellules en milieu seul (VIOLET CRISTAL, AVF1 1 10^-4 %): 9%
DO/ml moyenne sur 4 puis ± écart type (VIOLET CRISTAL, AVF1 1 10^-5 %): 0,259 ± 0,033 DO/ml
Pourcentage de survie par rapport au témoin cellules en milieu seul (VIOLET CRISTAL, AVF1 1 10^-5 %): 12%
DO/ml moyenne sur 4 puis ± écart type (VIOLET CRISTAL, AVF1 1 %): 0,172 ± 0,030 DO/ml
Pourcentage de survie par rapport au témoin cellules en milieu seul (VIOLET CRISTAL, AVF1 1 %): 8%
DO/ml moyenne sur 4 puis ± écart type (VIOLET CRISTAL, AVF1 5 10^-3 %): 0,061 ± 0,017 DO/ml
Pourcentage de survie par rapport au témoin cellules en milieu seul (VIOLET CRISTAL, AVF1 5 10^-3 %): 3%
DO/ml moyenne sur 4 puis ± écart type (VIOLET CRISTAL, AVF1 5 10^-4 %): 0,156 ± 0,010 DO/ml
Pourcentage de survie par rapport au témoin cellules en milieu seul (VIOLET CRISTAL, AVF1 5 10^-4 %): 7%
DO/ml moyenne sur 4 puis ± écart type (VIOLET CRISTAL, AVF1 5 10^-5 %): 0,216 ± 0,034 DO/ml
Pourcentage de survie par rapport au témoin cellules en milieu seul (VIOLET CRISTAL, AVF1 5 10^-5 %): 10%
DO/ml moyenne sur 4 puis ± écart type (VIOLET CRISTAL, AVF1 5 10^-6 %): 1,129 ± 0,069 DO/ml
Pourcentage de survie par rapport au témoin cellules en milieu seul (VIOLET CRISTAL, AVF1 5 10^-6 %): 54%
DO/ml moyenne sur 4 puis ± écart type [10]: 0,960 ± 0,070 DO/ml
Pourcentage de survie par rapport au témoin cellules en milieu seul [10]: 86%
DO/ml moyenne sur 4 puis ± écart type [11]: 1,128 ± 0,043 DO/ml
Pourcentage de survie par rapport au témoin cellules en milieu seul [11]: 100%
DO/ml moyenne sur 4 puis ± écart type [12]: 1,010 ± 0,059 DO/ml
Pourcentage de survie par rapport au témoin cellules en milieu seul [12]: 91%
DO/ml moyenne sur 4 puis ± écart type [13]: 0,934 ± 0,050 DO/ml
Pourcentage de survie par rapport au témoin cellules en milieu seul [13]: 84%
DO/ml moyenne sur 4 puis ± écart type [14]: 1,051 ± 0,041 DO/ml
Pourcentage de survie par rapport au témoin cellules en milieu seul [14]: 94%
DO/ml moyenne sur 4 puis ± écart type [15]: 1,089 ± 0,051 DO/ml
Pourcentage de survie par rapport au témoin cellules en milieu seul [15]: 98%
DO/ml moyenne sur 4 puis ± écart type [16]: 0,970 ± 0,062 DO/ml
Pourcentage de survie par rapport au témoin cellules en milieu seul [16]: 87%
DO/ml moyenne sur 4 puis ± écart type [17]: 1,000 ± 0,089 DO/ml
Pourcentage de survie par rapport au témoin cellules en milieu seul [17]: 90%
DO/ml moyenne sur 4 puis ± écart type [18]: 0,991 ± 0,078 DO/ml
Pourcentage de survie par rapport au témoin cellules en milieu seul [18]: 89%
toxique jusqu'à la concentration de (conclusion of first toxicity experiment (Tableaux III, IV), toxic down to this concentration): ≥ 5 x 10^-5%
hautement toxique jusqu'à (conversion of 10^-5 %): ~100 nM
hautement toxique jusqu'à (toxic down to this concentration): ≥ 10^-5%
